US9192552B2, “Personal care compositions with improved solubility of a solid UV active” (priority 2011, dated 2015)
Like-named read-outs stand apart in the source and are kept apart here.

Tests used:
[1] = Solvency test: solubility of bis-ethylhexyloxyphenol methoxyphenyl triazine (bemotrizinol) in solvent, visible crystals after storage
Protocol: (§1) In the testing provided below, “soluble” (or “solubilize”), in relation to the solubility of a solid solute being tested, means that no visible crystals may be seen after a prescribed storage period at a storage condition. The storage period can vary. Suitable storage periods include about 24 hours, about 1 week, and about 30 days. Suitable storage conditions include ambient conditions or cold storage at 5° C. (approximately 1 atm). In certain embodiments, solubility may be determined after a 24 hour storage period at ambient conditions. In other embodiments, solubility may be determined after 20 days in cold storage. Other testing parameters may include storage for prolonged time periods (e.g., 30 day, 50 days, 60 days, 90 days) and at variable temperatures (e.g., 5° C., 50° C.).
The solvency of an isosorbide diester within the scope of the present invention was tested against two conventional, industry standard solvents. […] Solubility was also evaluated for samples stored for 7 day at 5° C. followed by equilibration to ambient conditions.

[2] = Solvency test: solubility of butyl methoxydibenzoylmethane (avobenzone) in solvent, visible crystals after storage
Protocol: as §1
The solvency of an isosorbide diester within the scope of the present invention was tested against two conventional, industry standard solvents. […] Various ratios of the solute:solvent were prepared by mixing solvents and the solid sunscreen (solute) and heating to 70° C. Upon reaching 70° C., the examples may be mixed for about 10 minutes. The mixtures are placed in a covered vial and cooled to the storage temperature. Solubility was evaluated for samples stored 24 hours after mixing at room temperature. […]

[3] = solute bemotrizinol (Tinosorb S), 24 hour rest at Ambient Conditions
[4] = solute bemotrizinol (Tinosorb S), 30 day storage at 5° C.
[5] = solute avobenzone (PARSOL 1789), 24 hour rest at Ambient Conditions

Compound	Solubility at Solute:Solvent Ratio 1:4 [1]	Solubility at Solute:Solvent Ratio 1:6 [1]	Solubility at Solute:Solvent Ratio 1:8 [1]	Solubility at Solute:Solvent Ratio 1:2 [2]	Solubility at Solute:Solvent Ratio 1:3 [2]	Solubility at Solute:Solvent Ratio 1:4 [2]	Solubility at Solute:Solvent Ratio 1:3 [1, 3]	Solubility at Solute:Solvent Ratio 1:4 [1, 3]	Solubility at Solute:Solvent Ratio 1:6 [1, 3]	Solubility at Solute:Solvent Ratio 1:8 [1, 3]	Solubility at Solute:Solvent Ratio 1:3 [1, 4]	Solubility at Solute:Solvent Ratio 1:6 [1, 4]	Solubility at Solute:Solvent Ratio 1:8 [1, 4]	Solubility at Solute:Solvent Ratio 14 [1, 4]	Solvency compared with the industry leading solvents ([1]; solute bemotrizinol, versus isopropyl lauroyl sarcosinate and C12-15 alkyl benzoate)	Solubility at Solute:Solvent Ratio 1:3 [2, 5]	Solubility at Solute:Solvent Ratio 1:4 [2, 5]	Solubility at Solute:Solvent Ratio 1:4 ([2]; solute avobenzone (PARSOL 1789), 30 day storage at 5° C.)	Solvency compared with the industry leading solvents ([2]; solute avobenzone, versus isopropyl lauroyl sarcosinate and C12-15 alkyl benzoate)
CCCCCCCCCCCC(=O)N(C)CC(=O)OC(C)C [Isopropyl lauroyl sarcosinate, isopropyl lauroyl sarcosinate, reference compound]	S	S	S	S	S	S													
CCCCCCCC(=O)OC1COC2C(OC(=O)CCCCCCC)COC12 (stereo not shown) [Isosorbide dicaprylate, isosorbide dicaprylate]							S	S	S	S	S	S	S	S	superior to the industry leading solvents	S	S	S	equivalent to the industry leading solvents
